Results: US20210327553A1, “PREDICTION OF ADVERSE DRUG REACTION BASED ON MACHINE-LEARNED MODELS USING PROTEIN FUNCTION SCORES AND CLINICAL FACTORS” (Cipherome, Inc., priority 2020, published 2021)

What was measured:
COVID-19 = settings: limited in-vitro and anecdotal data; cited from earlier work
[1] = prolonged use in patients with liver or kidney problems or immunosuppressed; cited from earlier work
[2] = Retrospective UK Biobank analysis of warfarin ADR records within first 90 days of administration; format: in vivo; settings: n=612, ADR record (ICD9/10) within first 90 days of warfarin administration
Protocol: A retrospective analysis was conducted using genomic and phenotypic data from the UK Biobank (FIG. 2). […] Most common warfarin ADRs listed in the health registry data included non-traumatic, hemorrhage, gastrointestinal bleeding, and “ADRs due to anticoagulant use”.

Row | Compound | in-vitro activity against COVID-19 (COVID-19) | cardiotoxicity [1] | ADR prevalence [2] [%]
1 | CCN(CC)CCCC(C)Nc1ccnc2cc(Cl)ccc12 (centres unmarked) [chloroquine] | have in-vitro activity against COVID-19 | cadiotoxicity (prolonged QT syndrome of irregular heartbeats) | 
2 | CCN(CCO)CCCC(C)Nc1ccnc2cc(Cl)ccc12 (centres unmarked) [hydroxychloroquine] | have in-vitro activity against COVID-19 | cadiotoxicity (prolonged QT syndrome of irregular heartbeats) | 
3 | CC(=O)CC(c1ccccc1)c1c(O)c2ccccc2oc1=O (centres unmarked) [warfarin] |  |  | 4.41
